Experimental data reported in patent US8362227B2, “Detection of clostridium difficile” (Mayo Foundation for Medical Education and Research, priority 2008, dated 2013).

Test system: C. difficile culture positive isolates
Experiment: Agar dilution MIC testing of anaerobes (moxifloxicin susceptibility)
Type: cell-based, Clostridium difficile
Details: for Susceptibility to Moxifloxicin, I = 4 (number of specimens): I = intermediate; for Susceptibility to Moxifloxicin, I = 4 (number of specimens) / Susceptibility to Moxifloxicin, R > 8 (number of specimens) / Susceptibility to Moxifloxicin, S ≦ 2 (number of specimens): agar dilution; for Susceptibility to Moxifloxicin, R > 8 (number of specimens): R = resistant; for Susceptibility to Moxifloxicin, S ≦ 2 (number of specimens): S = susceptible
Procedure: Moxifloxicin susceptibility testing by agar dilution was performed on all C. difficile culture positive isolates. Growth from subculture plates was suspended in pre-reduced Schaedler's broth to McFarland 0.5 turbidity. A Steers replicator seed block was used to inoculate the moxifloxicin plate from lowest to highest dilution. The inoculated media was incubated under anaerobic conditions for 48 hours before endpoint determination was read. The testing was performed and interpreted as defined in CLSI document M11-A7.

[1] = LIGHTCYCLER PCR bp deletions demonstrated in tcdC
[2] = LIGHTCYCLER PCR no deletions demonstrated

## COc1c(N2C[C@@H]3CCCN[C@@H]3C2)c(F)cc2c(=O)c(C(=O)O)cn(C3CC3)c12 [Moxifloxicin]
13 specimens with the tcdC gene deletions
  specimens with tcdC gene deletions showing resistance to moxifloxicin: 46%
[1]
  Susceptibility to Moxifloxicin, I = 4 (number of specimens): 0
  Susceptibility to Moxifloxicin, R > 8 (number of specimens): 6
  Susceptibility to Moxifloxicin, S ≦ 2 (number of specimens): 7
[2]
  Susceptibility to Moxifloxicin, I = 4 (number of specimens): 2
  Susceptibility to Moxifloxicin, R > 8 (number of specimens): 7
  Susceptibility to Moxifloxicin, S ≦ 2 (number of specimens): 20
Total, all 49 C. difficile culture positive isolates, intermediate at 4 μg/mL
  Susceptibility to Moxifloxicin, I = 4 (number of isolates): 2
Total, all 49 C. difficile culture positive isolates, intermediate at 4 μg/mL, listed as moxifloxicin
  Susceptibility to Moxifloxicin, I = 4 (number of isolates): two
Total, all 49 C. difficile culture positive isolates, resistant
  Susceptibility to Moxifloxicin, R > 8 (number of isolates): 13
Total, all 49 C. difficile culture positive isolates, susceptible at ≦2 μg/mL
  Susceptibility to Moxifloxicin, S ≦ 2 (number of isolates): 32
Total, all 49 C. difficile culture positive isolates, susceptible at ≦2 μg/mL, listed as moxifloxicin
  Susceptibility to Moxifloxicin, S ≦ 2 (number of isolates): Thirty-two
Intermediate at 4 μg/mL, 49 C. difficile culture positive isolates
  culture positive isolates intermediate to moxifloxicin: 4%
Resistant at ≧8 μg/mL, 49 C. difficile culture positive isolates
  culture positive isolates resistant to moxifloxicin: 26%
Susceptible at ≦2 μg/mL, 49 C. difficile culture positive isolates
  culture positive isolates susceptible to moxifloxicin: 65%
